In US20230146455A1, “TREATMENT OF INFLAMMATORY DISEASES WITH PEPTIDES AND PHARMACEUTICAL COMPOSITIONS” (Yuyu Pharma, Inc., priority 2020, published 2023):
“Also recorded” adds a separate entry of the source. Where a SMILES comes first, the peptide text is derived from it. [ ]: non-standard residue; d: D form. Hyp = O=C(O)[C@@H]1C[C@@H](O)CN1

Test system: cytokine and chemokine release in human peripheral blood mononuclear cells (hPBMCs)
Experiment: Luminex multiplex, 30 cytokines and chemokines, LPS stimulated hPBMCs (Example 9, Study 2), whole panel
Format: cell-based
Conditions: for LPS-induced pro-inflammatory cytokines and chemokines, whole panel (in words): LPS 5 ug/mL 24 hrs, 100 uM to 1 nM
Protocol: Human PBMCs frozen purchased from ATCC in a cryo-preservative were thawed, washed with Hank's Balanced Salt Solution containing 10% fetal bovine serum, and seeded onto a 24-well plate at a density of 0.5×10^6 cells/well with culture RPMI media containing 10% fetal bovine serum in growth media in a 24 well plate for 24 hrs and maintained at 37° C. in an atmosphere of 95% air and 5% CO2. At the end of 24 hr culture, cells are pretreated with YY-101, YDE-011 and YDE-043 or reference compound, Xiidra® at various concentrations for 2 h before stimulation. An equal volume of 0.5% DMSO is used as a vehicle control. Then, the cells are treated with LPS. Supernatants from treated cells are harvested at 24 hr post-LPS treatment and placed in 96 well for Luminex cytokine & chemokine profiling using a Luminex 200 multiplex assay.
Human PBMCs frozen in a cryopreserve was thawed, washed with Hank's Balanced Salt Solution containing 10% Fetal bovine serum, and seeded onto a 24-well plate at a density of 0.5×10^6 cells/well with culture RPMI media containing 10% Fetal bovine serum in growth media in a 24 well plate for 24 hrs and maintained at 37° C. in an atmosphere of 95% air and 5% CO2.
Treatment Human PBMCs were pretreated with YY-101, YDE-011 and YDE-043 or reference compound; Xiidra® at various concentration (ranging from 1 nM to 100 uM) for 2 h before stimulation. An equal volume of 0.5% DMSO was used as a vehicle control. Then, the cells were treated with LPS at 5 ug/ml. The supernatants from treated cells were harvested at 24 h and placed in a 96 well for Luminex cytokine & chemokine profiling using a Luminex 200 multiplex assay (Luminex; R&D system, USA).
The main study arm with triplicate wells per group in a 24-well plate: • 1. Blank • 2. PBMC: 0.5% DMSO • 3. PBMC+LPS (5 ug/ml) • 4. PBMC+YY-101 100 uM • 5. PBMC+YY-101 10 uM • 6. PBMC+YY-101 1 uM • 7. PBMC+YY-101 0.1 uM • 8. PBMC+YY-101 0.01 uM • 9. PBMC+LPS (5 ug/ml)+Xiidra®100 uM • 10. PBMC+LPS (5 ug/ml)+Xiidra® 10 uM • 11. PBMC+LPS (5 ug/ml)+Xiidra® 1 uM • 12. PBMC+LPS (5 ug/ml)+Xiidra®0.1 uM • 13. PBMC+LPS (5 ug/ml)+Xiidra®0.01 uM • 14. PBMC+LPS (5 ug/ml)+Xiidra®0.001 uM • 15. PBMC+LPS (5 ug/ml)+YY-101 100 uM • 16. PBMC+LPS (5 ug/ml)+YY-101 10 uM • 17. PBMC+LPS (5 ug/ml)+YY-101 1 uM • 18. PBMC+LPS (5 ug/ml)+YY-101 0.1 uM • 19. PBMC+LPS (5 ug/ml)+YY-101 0.01 uM • 20. PBMC+LPS (5 ug/ml)+YY-101 0.001 uM • 21. PBMC+LPS (5 ug/ml)+YDE-011 100 uM • 22. PBMC+LPS (5 ug/ml)+YDE-011 10 uM • 23. PBMC+LPS (5 ug/ml)+YDE-011 1 uM • 24. PBMC+LPS (5 ug/ml)+YDE-011 0.1 uM • 25. PBMC+LPS (5 ug/ml)+YDE-011 0.01 uM • 26. PBMC+LPS (5 ug/ml)+YDE-011 0.001 uM • 27. PBMC+LPS (5 ug/ml)+YDE-043 100 uM • 28. PBMC+LPS (5 ug/ml)+YDE-043 10 uM • 29. PBMC+LPS (5 ug/ml)+YDE-043 1 uM • 30. PBMC+LPS (5 ug/ml)+YDE-043 0.1 uM • 31. PBMC+LPS (5 ug/ml)+YDE-043 0.01 uM • 32. PBMC+LPS (5 ug/ml)+YDE-043 0.001 uM
Multiplex assay was used to measure 30 cytokines and chemokines. The 1:2, 1:10 and 1:200 diluted cell supernatant and serial dilution of the standard were dispensed into a 96 well plate at 50 ul/well. Then, the pre-mixed cocktail of antibody-coated magnetic beads was dispensed at 50 ul/well and incubated at room temperature for 2 h in a horizontal orbital microplate shaker at 800±500 rpm. The beads were washed using a magnetic device to prevent loss. […] The data was calculated with a standard five-parameter logistic nonlinear regression analysis of the data (xPonent software 4.2, USA). […]

| Structure (SMILES) | LPS-induced pro-inflammatory cytokines and chemokines, whole panel (in words) | basal levels of cytokine/chemokine production (in words) (no LPS, up to 100 μM) | LPS-induced pro-inflammatory cytokines and chemokines, whole panel (in words) (listed as YDE043) |
| --- | --- | --- | --- |
| CC(C)C[C@H](NC(=O)CNC(=O)[C@H](CC(=O)O)NC(=O)[C@H](CCC(N)=O)NC(=O)CNC(=O)[C@@H]1C[C@@H](O)CN1)C(=O)N[C@@H](C)C(=O)NCC(=O)N1CCC[C@H]1C(=O)N[C@@H](CCCCN)C(=O)O [YY-101] (H-[Hyp]GQDGLAGPK-OH; N-terminus and C-terminus assumed) | effectively and potently reduced | didn't affect the basal levels of most of cytokine/chemokine production; also recorded: didn't affect the basal levels of cytokine production except TIMP-1 |  |
| CC(C)C[C@H](NC(=O)[C@H](CCC(N)=O)NC(=O)CNC(=O)[C@@H]1C[C@@H](O)CN1)C(=O)NCC(=O)O [YDE-043] (H-[Hyp]GQLG-OH; N-terminus and C-terminus assumed) | effectively and potently reduced |  | more potent and effective immunomodulators |
| CC(C)C[C@H](NC(=O)CNC(=O)[C@H](CC(C)C)NC(=O)[C@H](CCC(N)=O)NC(=O)CNC(=O)[C@@H]1C[C@@H](O)CN1)C(=O)N[C@@H](C)C(=O)NCC(=O)N1CCC[C@H]1C(=O)N[C@@H](CCCCN)C(=O)O [YDE-011] (H-[Hyp]GQLGLAGPK-OH) | effectively and potently reduced; also recorded: more potent and effective immunomodulators |  |  |
